Results taken from patent US20250059179A1, “Heterocyclic Compounds and Methods of Use” (AMGEN INC., priority 2021, published 2025).
pIC50: −log10 of the molar value.

target: GDP-bound KRAS protein (aa 1-169), containing both G12D and C118A amino acid substitutions (Homo sapiens, UniProt P01116, C118A/G12D); assay: KRAS G12D Coupled Nucleotide Exchange Assay; assay type: biochemical; details: 2 h compound pre-incubation; SOS-mediated nucleotide exchange, cRAF AlphaScreen readout;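 note: IC50 obtained by fitting the AlphaScreen signal with a four-parameter logistic curve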
Sequence (P01116 1-169 isoform P01116-2 G12D/C118A): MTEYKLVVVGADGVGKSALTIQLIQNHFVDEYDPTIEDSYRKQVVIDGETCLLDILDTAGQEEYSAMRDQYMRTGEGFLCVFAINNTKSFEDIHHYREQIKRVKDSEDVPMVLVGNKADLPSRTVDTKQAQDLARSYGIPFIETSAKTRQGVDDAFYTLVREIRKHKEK

Compound | Avg 2 h Coupled Exchange IC50 [nM]
CN1CCO[C@H]2CN(c3nc(N4CCNCC4)c4cc(Cl)c(-c5cccc6sc(N)nc56)c(F)c4n3)C[C@@H]21 (relative stereo) [Example 101, 4-(6-chloro-8-fluoro-2-(trans-4-methylhexahydropyrrolo[3,4-b][1,4]oxazin-6(2H)-yl)-4-(piperazin-1-yl)quinazolin-7-yl)benzo[d]thiazol-2-amine] | 1530
CN1CCO[C@@H]2CN(c3nc(N4CCNCC4)c4cc(Cl)c(-c5cccc6sc(N)nc56)c(F)c4n3)C[C@@H]21 (relative stereo) [Example 103, 4-(6-chloro-8-fluoro-2-(cis-4-methylhexahydropyrrolo[3,4-b][1,4]oxazin-6(2H)-yl)-4-(piperazin-1-yl)quinazolin-7-yl)benzo[d]thiazol-2-amine] | 1710
Nc1nc2c(-c3c(Cl)cc4c(N5CCNCC5)nc(N5CC(N6CCCCC6)C5)nc4c3F)cccc2s1 [Example 78, 4-[6-chloro-8-fluoro-4-piperazin-1-yl-2-[3-(1-piperidyl)azetidin-1-yl]quinazolin-7-yl]-1,3-benzothiazol-2-amine] | 280
C[C@@H]1[C@@H](N)CN1c1nc(N2CCNCC2)c2cc(Cl)c(-c3cccc4sc(N)nc34)c(F)c2n1 [Example 80, 4-[2-[(2R,3S)-3-amino-2-methyl-azetidin-1-yl]-6-chloro-8-fluoro-4-piperazin-1-yl-quinazolin-7-yl]-1,3-benzothiazol-2-amine] | 377
CN1CCC[C@H]1COc1nc(N2C3CCC2C(=O)NC3)c2cc(Cl)c(-c3cccc4sc(N)nc34)c(F)c2n1 (stereo partly drawn) [Example 82, 8-(7-(2-aminobenzo[d]thiazol-4-yl)-6-chloro-8-fluoro-2-(((S)-1-methylpyrrolidin-2-yl)methoxy)quinazolin-4-yl)-3,8-diazabicyclo[3.2.1]octan-2-one] | 471
Nc1nc2c(-c3c(Cl)cc4c(N5CCNCC5)nc(N5CC(N6CCC(O)CC6)C5)nc4c3F)cccc2s1 [Example 83, 1-[1-[7-(2-amino-1,3-benzothiazol-4-yl)-6-chloro-8-fluoro-4-piperazin-1-yl-quinazolin-2-yl]azetidin-3-yl]piperidin-4-ol] | 496
Nc1nc2c(-c3c(Cl)cc4c(N5CCNCC5)nc(N5CC(N6CC(O)C6)C5)nc4c3F)cccc2s1 [Example 85, 1-[1-[7-(2-amino-1,3-benzothiazol-4-yl)-6-chloro-8-fluoro-4-piperazin-1-yl-quinazolin-2-yl]azetidin-3-yl]azetidin-3-ol] | 633
Nc1nc2c(-c3c(Cl)cc4c(N5CCNCC5)nc(N5CC(N6C[C@H]7COC[C@@H](C6)N7)C5)nc4c3F)cccc2s1 [Example 87, 4-(2-(3-((1R,5S)-3-oxa-7,9-diazabicyclo[3.3.1]nonan-7-yl)azetidin-1-yl)-6-chloro-8-fluoro-4-(piperazin-1-yl)quinazolin-7-yl)benzo[d]thiazol-2-amine] | 701
COC1CCN(C2CN(c3nc(N4CCNCC4)c4cc(Cl)c(-c5cccc6sc(N)nc56)c(F)c4n3)C2)CC1 [Example 88, 4-[6-chloro-8-fluoro-2-[3-(4-methoxy-1-piperidyl)azetidin-1-yl]-4-piperazin-1-yl-quinazolin-7-yl]-1,3-benzothiazol-2-amine] | 706
CN(C1CN(c2nc(N3CCNCC3)c3cc(Cl)c(-c4cccc5sc(N)nc45)c(F)c3n2)C1)[C@@H]1CCOC1 [Example 89] | 895
Nc1nc2c(-c3c(Cl)cc4c(N5CCNCC5)nc(N5CC(N6CC(F)C6)C5)nc4c3F)cccc2s1 [Example 90, 4-[6-chloro-8-fluoro-2-[3-(3-fluoroazetidin-1-yl)azetidin-1-yl]-4-piperazin-1-yl-quinazolin-7-yl]-1,3-benzothiazol-2-amine] | 1010
Nc1nc2c(-c3c(Cl)cc4c(N5CCNCC5)nc(N5CC(N6CCCC(O)C6)C5)nc4c3F)cccc2s1 (centres unmarked) [Example 92, 1-[1-[7-(2-amino-1,3-benzothiazol-4-yl)-6-chloro-8-fluoro-4-piperazin-1-yl-quinazolin-2-yl]azetidin-3-yl]piperidin-3-ol] | 1020
Nc1nc2c(-c3c(Cl)cc4c(N5CCNCC5)nc(N5C[C@@H]6NCC[C@H]65)nc4c3F)cccc2s1 [Example 93, 4-[6-chloro-2-[(1S,5R)-2,6-diazabicyclo[3.2.0]heptan-6-yl]-8-fluoro-4-piperazin-1-yl-quinazolin-7-yl]-1,3-benzothiazol-2-amine] | 1140
CN(C)C1CCN(c2nc(N3CCNCC3)c3cc(Cl)c(-c4cccc5sc(N)nc45)c(F)c3n2)C1 (centres unmarked) [Example 94, 4-[6-chloro-8-fluoro-4-piperazin-1-yl-2-[3-(dimethylamino)pyrrolidin-1-yl]quinazolin-7-yl]-1,3-benzothiazol-2-amine] | 1140
CN(C)[C@@H]1CCN(c2nc(N3CCNCC3)c3cc(Cl)c(-c4cccc5sc(N)nc45)c(F)c3n2)C1 [Example 95, 4-[6-chloro-2-[(3R)-3-(dimethylamino)pyrrolidin-1-yl]-8-fluoro-4-piperazin-1-yl-quinazolin-7-yl]-1,3-benzothiazol-2-amine] | 1180
CN1CCC2CN(c3nc(N4CCNCC4)c4cc(Cl)c(-c5cccc6sc(N)nc56)c(F)c4n3)CC21 (centres unmarked) [Example 98, 4-(6-chloro-8-fluoro-2-(1-methylhexahydropyrrolo[3,4-b]pyrrol-5(1H)-yl)-4-(piperazin-1-yl)quinazolin-7-yl)benzo[d]thiazol-2-amine] | 1310
CN1CCCC2C1CCN2c1nc(N2CCNCC2)c2cc(Cl)c(-c3cccc4sc(N)nc34)c(F)c2n1 (centres unmarked) [Example 99, 4-(6-chloro-8-fluoro-2-(4-methyloctahydro-1H-pyrrolo[3,2-b]pyridin-1-yl)-4-(piperazin-1-yl)quinazolin-7-yl)benzo[d]thiazol-2-amine] | 1400
CN(C1COC1)C1CN(c2nc(N3CCNCC3)c3cc(Cl)c(-c4cccc5sc(N)nc45)c(F)c3n2)C1 [Example 100, 4-[6-chloro-8-fluoro-2-[3-[methyl(oxetan-3-yl)amino]azetidin-1-yl]-4-piperazin-1-yl-quinazolin-7-yl]-1,3-benzothiazol-2-amine] | 1500
CON(C)C1CN(c2nc(N3CCNCC3)c3cc(Cl)c(-c4cccc5sc(N)nc45)c(F)c3n2)C1 [Example 104, 4-[6-chloro-8-fluoro-2-[3-[methoxy(methyl)amino]azetidin-1-yl]-4-piperazin-1-yl-quinazolin-7-yl]-1,3-benzothiazol-2-amine] | 1730

The remaining lines, values ahead:

Avg 2 h Coupled Exchange IC50 [nM] | Compound
201 | CNC1(C)CN(c2nc(N3CCNCC3)c3cc(Cl)c(-c4cccc5sc(N)nc45)c(F)c3n2)C1 [Example 77, 4-[6-chloro-8-fluoro-2-[3-methyl-3-(methylamino)azetidin-1-yl]-4-piperazin-1-yl-quinazolin-7-yl]-1,3-benzothiazol-2-amine]
359 | CC1(N)CN(c2nc(N3CCNCC3)c3cc(Cl)c(-c4cccc5sc(N)nc45)c(F)c3n2)C1 [Example 79, 4-[2-(3-amino-3-methyl-azetidin-1-yl)-6-chloro-8-fluoro-4-piperazin-1-yl-quinazolin-7-yl]-1,3-benzothiazol-2-amine]
437 | CCC1(N)CN(c2nc(N3CCNCC3)c3cc(Cl)c(-c4cccc5sc(N)nc45)c(F)c3n2)C1 [Example 81, 4-[2-(3-amino-3-ethyl-azetidin-1-yl)-6-chloro-8-fluoro-4-piperazin-1-yl-quinazolin-7-yl]-1,3-benzothiazol-2-amine]
567 | Nc1nc2c(-c3c(Cl)cc4c(N5CCNCC5)nc(N5CC6(CCCN6)C5)nc4c3F)cccc2s1 [Example 84, 4-[6-chloro-2-(2,5-diazaspiro[3.4]octan-2-yl)-8-fluoro-4-piperazin-1-yl-quinazolin-7-yl]-1,3-benzothiazol-2-amine]
648 | CC1(O)CN(C2CN(c3nc(N4CCNCC4)c4cc(Cl)c(-c5cccc6sc(N)nc56)c(F)c4n3)C2)C1 [Example 86, 1-[1-[7-(2-amino-1,3-benzothiazol-4-yl)-6-chloro-8-fluoro-4-piperazin-1-yl-quinazolin-2-yl]azetidin-3-yl]-3-methyl-azetidin-3-ol]
1013 | CNC1CN(c2nc(N3CCNCC3)c3cc(Cl)c(-c4cccc5sc(N)nc45)c(F)c3n2)C1 [Example 91, 4-[6-chloro-8-fluoro-2-[3-(methylamino)azetidin-1-yl]-4-piperazin-1-yl-quinazolin-7-yl]-1,3-benzothiazol-2-amine]
1251 | Nc1nc2c(-c3c(Cl)cc4c(N5CCNCC5)nc(N5CC(N)C5)nc4c3F)cccc2s1 [Example 96, 4-[2-(3-aminoazetidin-1-yl)-6-chloro-8-fluoro-4-piperazin-1-yl-quinazolin-7-yl]-1,3-benzothiazol-2-amine]
1270 | CNC1CCN(c2nc(N3CCNCC3)c3cc(Cl)c(-c4cccc5sc(N)nc45)c(F)c3n2)C1 (centres unmarked) [Example 97, 4-[6-chloro-8-fluoro-4-piperazin-1-yl-2-[3-(methylamino)pyrrolidin-1-yl]quinazolin-7-yl]-1,3-benzothiazol-2-amine]
1550 | Nc1nc2c(-c3c(Cl)cc4c(N5CCNCC5)nc(N5CC6(CCN6)C5)nc4c3F)cccc2s1 [Example 102, 4-[6-chloro-2-(1,6-diazaspiro[3.3]heptan-6-yl)-8-fluoro-4-piperazin-1-yl-quinazolin-7-yl]-1,3-benzothiazol-2-amine]

same assay, conditions: read-out: Avg 2 h Coupled Exchange IC50; 2 h compound pre-incubation; SOS-mediated nucleotide exchange, cRAF AlphaScreen readout

pIC50 | Compound
6.76 | CN(C)C1(C)CN(c2nc(N3CCNCC3)c3cc(Cl)c(-c4cccc5sc(N)nc45)c(F)c3n2)C1 [Example 76]
